Test results reported in article PMC8248988, “A signal capture and proofreading mechanism for the KDEL-receptor explains selectivity and dynamic range in ER retrieval” (eLife, 2021).

Experiments:
human KDELR1 E117A = target: T1, human KDELR1 E117A (Homo sapiens, UniProt P24390, E117A); assay: ER retrieval assay, KDELR1 E117A-GFP; assay type: cell-based; details: COS-7 cells
T1 construct: expressed in transfected cells; host or cells: COS-7
From the text: (§1) To create KDELR1-GFP and KDELR2-GFP, the reading frames for Homo sapiens KDELR1 (Uniprot: P24390) and KDELR2 (Uniprot: P33947) were cloned into the pEF5/FRT low level mammalian expression vector with a C-terminal 20 amino acid linker made up of 5 copies of Gly-Ser-Ser-Ser followed by GFP. Specific point mutations were introduced using the Quickchange protocol (Stratagene) and are described in the key resources table and figures. To create the mScarlet-KDEL^sec ligand construct, mScarlet with an N-terminal hGH signal peptide and the 16 C-terminal residues of human BiP at its C-terminus, containing the KDEL signal, was cloned into the pcDNA3.1 vector. […] The Golgi marker protein TGN46 was detected by antibody (sheep anti-TGN46 AHP500G; AbD Serotec) and an Alexa 647 conjugated secondary anti-sheep secondary (A-21448, Invitrogen). In Figure 1d and e, endogenous KDELR was detected by antibody (mouse anti-KDELR ADI-VAA-PT048; Enzo Life Sciences) and Alexa 488 conjugated anti-mouse secondary antibody (A-21202, Invitrogen). For retrieval assays in other figures, KDELR-GFP fusion proteins were directly detected by fluorescence. The mScarlet-xDEL fusion proteins were directly detected by fluorescence. […] The fraction of KDEL receptor in the Golgi apparatus was calculated by dividing the Golgi signal by the total cell signal. […]

human KDELR1 E117N = target: T2, human KDELR1 E117N (Homo sapiens, UniProt P24390, E117N); assay: ER retrieval assay, KDELR1 E117N-GFP; assay type: cell-based; details: COS-7 cells
T2 construct: expressed in transfected cells; host or cells: COS-7
From the text: as §1

T2 sequence (P24390 whole entry E117N): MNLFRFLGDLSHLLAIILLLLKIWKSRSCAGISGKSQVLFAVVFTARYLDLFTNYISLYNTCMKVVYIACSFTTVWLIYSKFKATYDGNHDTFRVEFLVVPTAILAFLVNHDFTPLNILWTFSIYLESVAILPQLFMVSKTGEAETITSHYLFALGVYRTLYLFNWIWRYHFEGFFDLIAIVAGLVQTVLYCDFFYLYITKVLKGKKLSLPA
T1 sequence (P24390 whole entry E117A): as the sequence (P24390 whole entry E117N) above, with N117A counted along it

Substance: ADEL [pcDNA3.1 hGHss-mScarlet-H. sapiens BiP639-654K651A (ADEL^SEC), secreted mScarlet fusion with human BiP C-terminus, ADEL signal]
- ligand-induced receptor retrieval to the ER (in words) (human KDELR1 E117A): relocated to the ER
- ligand-induced receptor retrieval to the ER (in words) (human KDELR1 E117N): move to the ER
